Data on 27 compounds can be found in PubChem BioAssay (NCI).

For orientation: TGI means the concentration giving total growth inhibition.

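Assay format: 96-well plates, 48-hour exposure. TGI is the concentration that stops growth completely.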 Some results are limits rather than exact numbers.

Some test systems named below: 786-0 renal; BT-549 breast; SF-268 CNS; DU-145 prostate; CCRF-CEM leukemia; OVCAR-5 ovarian; MDA-MB-435; DMS 114 small cell lung; KM20L2 colon; DLD-1 colon; DMS 273 small cell lung; M19-MEL melanoma.
What all share (test): DTP human tumour cell line panel, 48 h

On to `CSC1=C(C#N)C(=O)N(c2ccc(Cl)cc2)C(=O)C1C#N` (stereo not given), for which the TGI in the test on 786-0 renal, in the test with BT-549 breast, in the test on SF-268 CNS, in the test on DU-145 prostate, with CCRF-CEM leukemia and with OVCAR-5 ovarian was > 100 µM each time. Besides, the TGI in the test on MDA-MB-435 was > 100 µM.

As to `CCN(CC)CCSc1n[nH]c(-c2c[nH]c3nc(C)ccc3c2=O)n1`, the total growth inhibition concentration (TGI) with 786-0 renal, in the test with BT-549 breast, in the test on SF-268 CNS, in the test on DU-145 prostate, in the test with CCRF-CEM leukemia and in the test on OVCAR-5 ovarian was > 100 µM throughout. The TGI in the test on MDA-MB-435 was > 100 µM.

In the case of `c1cc2[nH]snc2c2cncc12`, the TGI with 786-0 renal, in the test with BT-549 breast, in the test on SF-268 CNS, with DU-145 prostate, in the test with CCRF-CEM leukemia and in the test on OVCAR-5 ovarian was > 100 µM throughout. Also, the TGI in the test on MDA-MB-435 was > 100 µM.

As to `Nc1nc(N)c2ncn(-c3ccc(Cl)c(Cl)c3)c2n1`, the TGI in the test on 786-0 renal is 27.5 µM; in the test with BT-549 breast, 72.6 µM; with SF-268 CNS, > 100 µM; in the test on DU-145 prostate it was > 100 µM; with CCRF-CEM leukemia it was 28.8 µM; in the test with OVCAR-5 ovarian, > 100 µM. For the same compound, the TGI with MDA-MB-435 is > 100 µM.

With `c1ccc(CN2CCCN3CCN(CCCN(Cc4ccccc4)CC3)CC2)cc1`, the TGI in the test on 786-0 renal, in the test with BT-549 breast, with SF-268 CNS, with DU-145 prostate, with CCRF-CEM leukemia and in the test on OVCAR-5 ovarian was > 100 µM in each case. Further, the TGI in the test with MDA-MB-435 is > 100 µM.

For `CC(C)(Cl)C(Br)CCC(CBr)=C(Cl)CCl` (mixture of isomers), the TGI in the test with 786-0 renal is 3.04 µM; with BT-549 breast it was 4.14 µM; in the test on SF-268 CNS, 5.67 µM; with DU-145 prostate it was > 10 µM; in the test with CCRF-CEM leukemia, 0.568 µM; with OVCAR-5 ovarian, > 8.21 µM. Also, the TGI in the test on MDA-MB-435 was 3.46 µM.

Take `C=C1C(=O)CCC1C(=O)O` (stereo not given): the TGI in the test on 786-0 renal, in the test with BT-549 breast, in the test with SF-268 CNS, in the test with DU-145 prostate, with CCRF-CEM leukemia and in the test with OVCAR-5 ovarian was > 100 µM throughout. Moreover, the TGI with MDA-MB-435 is > 100 µM.

On to `O=S(Nc1ccccc1)c1ccc(-c2ccccc2)cc1` (stereo not given), for which the TGI with 786-0 renal, with BT-549 breast, with SF-268 CNS, in the test with DU-145 prostate, with CCRF-CEM leukemia and with OVCAR-5 ovarian was > 100 µM throughout. Further, the TGI with MDA-MB-435 was > 100 µM.

As for `N#CC(c1ccccc1)N(CCc1ccccc1)C(=O)c1ccccc1` (stereo not given), the TGI with 786-0 renal is > 91.4 µM; in the test on BT-549 breast it was > 100 µM; in the test with SF-268 CNS, > 86.5 µM; in the test with DU-145 prostate, > 100 µM; in the test with CCRF-CEM leukemia, > 100 µM; with OVCAR-5 ovarian it was > 100 µM. The TGI in the test with MDA-MB-435 is > 100 µM.

With `Cc1cc(C)c(S(=O)(=O)N(CCCCCCN)OCCCN)c(C)c1`, the TGI in the test with 786-0 renal stood at 32.1 µM; with BT-549 breast, 33.3 µM; in the test on SF-268 CNS it was 36.3 µM; with DU-145 prostate, 31.3 µM; with CCRF-CEM leukemia, 36.9 µM; in the test on OVCAR-5 ovarian it was 40.1 µM. The TGI in the test on MDA-MB-435 is > 100 µM.

Consider `COc1cc(C2=C(C)[C@@H]3CN(CC=C3c3ccc(Cl)cc3)C2)c(S(=O)(=O)O)cc1OC`, for which the TGI in the test on 786-0 renal, in the test on BT-549 breast, with SF-268 CNS, with DU-145 prostate, with CCRF-CEM leukemia and in the test with OVCAR-5 ovarian was > 100 µM in each case. The TGI in the test with MDA-MB-435 is > 100 µM.

For `CCOC(=O)c1ccc(NC(=O)O/N=C(/Cl)C(C)C)cc1`, the TGI with 786-0 renal is 16.5 µM; in the test on BT-549 breast it was 32.7 µM; with SF-268 CNS, 34.8 µM; in the test with DU-145 prostate, > 67.2 µM; with CCRF-CEM leukemia it was 2.55 µM; in the test with OVCAR-5 ovarian, 32.9 µM. In the test on MDA-MB-435, this compound returned a TGI of 32.5 µM.

Take `CC(C)C(C/C=C1/CC(CO)(COC(=O)C(C)(C)C)OC1=O)C(C)C` (stereo not given): the TGI in the test on 786-0 renal was 18.2 µM; in the test with BT-549 breast, 26.9 µM; in the test with SF-268 CNS, 23.5 µM; in the test with DU-145 prostate it was 23.4 µM; in the test with CCRF-CEM leukemia it was 36.5 µM; in the test with OVCAR-5 ovarian, 24.3 µM. Also, in the test with MDA-MB-435, the TGI stood at 21.5 µM.

With `OC12CC3c4ccccc4NC3C3Oc4cccc5c4C31CCN(CC1CC1)C2C5` (stereo not given), the TGI in the test on 786-0 renal stood at 32.2 µM; in the test on BT-549 breast, 34.7 µM; with SF-268 CNS it was 41.1 µM; with DU-145 prostate, 36.5 µM; with CCRF-CEM leukemia, 71 µM; with OVCAR-5 ovarian, 46.3 µM. This compound also came in with a TGI in the test with MDA-MB-435 of 32.3 µM.

For `CCN=C=NCCCN(C)C`, the TGI in the test on 786-0 renal, in the test on BT-549 breast, in the test on SF-268 CNS, with DU-145 prostate, with CCRF-CEM leukemia and in the test on OVCAR-5 ovarian was > 100 µM throughout. In the test on MDA-MB-435, the TGI was > 100 µM.

On to `Brc1cccc(Nc2ncnc3sc4c(c23)CCC(Nc2cccc(Br)c2)C4)c1` (stereo not given), for which the TGI in the test on 786-0 renal, in the test on BT-549 breast, with SF-268 CNS, in the test on DU-145 prostate, in the test with CCRF-CEM leukemia and in the test on OVCAR-5 ovarian was > 100 µM each time. The TGI in the test on MDA-MB-435 was > 100 µM.

With `C=CCOc1ccc(C2(c3ccc(OCC=C)cc3)C(=O)Nc3ccccc32)cc1`, the TGI in the test on 786-0 renal, in the test with BT-549 breast, in the test with SF-268 CNS, in the test on DU-145 prostate, in the test on CCRF-CEM leukemia and in the test with OVCAR-5 ovarian was > 10 µM in each case. In the test with MDA-MB-435, the TGI was > 10 µM.

Take `CC(C)c1cccc(C(C)C)c1NC(=O)C(=O)CC(=O)CC(c1ccccc1)c1c(O)c2ccccc2oc1=O` (stereo not given): the TGI in the test with 786-0 renal, in the test with DMS 114 small cell lung, in the test on SF-268 CNS, with KM20L2 colon, with CCRF-CEM leukemia and in the test with OVCAR-5 ovarian was > 100 µM each time. In addition, the TGI with DLD-1 colon was > 100 µM.

Regarding `CN/C=C(/c1ccc(OC)cc1)C(O)c1ccc(OC)c(OC)c1` (stereo not given), the TGI with 786-0 renal, in the test on DMS 114 small cell lung, in the test on DMS 273 small cell lung, with KM20L2 colon, in the test on CCRF-CEM leukemia and in the test with OVCAR-5 ovarian was > 100 µM each time. Besides, the TGI in the test with DLD-1 colon and in the test with M19-MEL melanoma was > 100 µM in each case.

In the case of `CC(=O)Nc1ccc(-c2nc3ccccc3s2)cc1Cl`, the TGI in the test on 786-0 renal is > 100 µM; in the test with BT-549 breast, > 100 µM; in the test with SF-268 CNS, > 100 µM; in the test on DU-145 prostate, > 92.4 µM; in the test on CCRF-CEM leukemia, > 100 µM; in the test on OVCAR-5 ovarian, > 100 µM. The TGI in the test with MDA-MB-435 was > 100 µM.

On to `CCN(CC)CCOc1ccc(N2Cc3ccccc3C2=O)cc1`, for which the TGI in the test with 786-0 renal, with BT-549 breast, in the test with SF-268 CNS, with DU-145 prostate, in the test with CCRF-CEM leukemia and with OVCAR-5 ovarian was > 10 µM each time. Moreover, the TGI with MDA-MB-435 is > 10 µM.

Take `CC(C)Oc1c(C2(c3ccccc3O)SCCCS2)c(=O)c1=O`: the TGI in the test on 786-0 renal is > 100 µM; with BT-549 breast, > 100 µM; with SF-268 CNS it was > 100 µM; in the test on DU-145 prostate, > 100 µM; in the test on CCRF-CEM leukemia it was 61.6 µM; in the test on OVCAR-5 ovarian it was > 100 µM. Moreover, in the test with MDA-MB-435, the TGI was > 100 µM.

In the case of `CN(C)CCn1c(=O)oc2cc(C(=O)CN3CCOCC3)ccc21`, the TGI with 786-0 renal, with BT-549 breast, in the test on SF-268 CNS, in the test on DU-145 prostate, in the test on CCRF-CEM leukemia and in the test on OVCAR-5 ovarian was > 100 µM throughout. The TGI in the test on MDA-MB-435 is > 100 µM.

`N#Cc1c(N)c2c(c(-c3ccccc3)c1-c1ccccc1)C(=O)N(Nc1ccccc1)C2=O`: the TGI with 786-0 renal, in the test with BT-549 breast, with SF-268 CNS, in the test on DU-145 prostate, in the test with CCRF-CEM leukemia and in the test on OVCAR-5 ovarian was > 100 µM each time. Moreover, the TGI in the test with MDA-MB-435 was > 100 µM.

On to `COc1ccc(C2C3=C(COC3=O)OC(C)(C)Oc3cc4c(cc32)OCO4)cc1` (stereo not given), for which the TGI is > 100 µM in the test on 786-0 renal; 89.3 µM in the test with BT-549 breast; > 100 µM in the test on SF-268 CNS; > 100 µM in the test with DU-145 prostate; > 100 µM with CCRF-CEM leukemia; > 100 µM in the test on OVCAR-5 ovarian. In the test on MDA-MB-435, this compound came in with a TGI of 14.9 µM.

In the case of `CCOC(=O)c1c(C)noc1/N=N/N(CCO)CCO`, the TGI in the test on 786-0 renal was > 100 µM; with BT-549 breast it was > 100 µM; with SF-268 CNS, > 100 µM; in the test on DU-145 prostate, > 100 µM; in the test with CCRF-CEM leukemia it was 59.3 µM; in the test on OVCAR-5 ovarian, > 100 µM. Moreover, in the test with MDA-MB-435, the TGI is > 100 µM.

For `Cc1ccc(-c2cn3c(nc4ccccc43)c(-c3ccccc3)n2)cc1`, the TGI is 49.2 µM in the test on 786-0 renal; > 77 µM in the test on BT-549 breast; > 96.2 µM in the test on SF-268 CNS; > 100 µM in the test with DU-145 prostate; > 100 µM in the test on CCRF-CEM leukemia; > 100 µM with OVCAR-5 ovarian. Also, in the test on MDA-MB-435, the TGI is > 100 µM.
